Reference: patent publication US8486935B2, “Xinafoate salt of N4-(2,2-difluoro-4H-benzo[1,4]oxazin-3-one)-6-yl]-5-fluoro-N2-[3-(methylaminocarbonylmethyleneoxy)phenyl]2,4-pyrimidinediamine” (Rigel Pharmaceuticals, Inc., priority 2007, dated 2013)
Where a name gives a salt, the structure may show the parent alone.

Assays:
Format in all cases: physicochemical
[1] = Solid form after micronisation using jet milling; conditions: following micronisation using jet milling
[2] = Hygroscopicity by dynamic vapour sorption
Experimental: Hygroscopicity was assessed using dynamic vapour sorption equipment (Surface Measurement Systems Ltd, model DVS-1). The analysis was conducted at 30° C. with a nitrogen gas flow of 200 cc/min. Water sorption and desorption were determined in the range 0 to 90% relative humidity (RH) using 15% RH intervals. Exposure was for a minimum of 2 hours at each humidity or until the rate of weight change was less than 0.0003%/minute (averaged over 10 minutes). Sample weight was 12.6 mg. The sample was weighed using a CAHN D-200, seven place digital recording balance, which is an integral part of the equipment.

[3] = Solid state stability and excipient compatibility of the lactose monohydrate blend; conditions: for % main band remaining versus control: micronised, 1:100 blend with lactose monohydrate, control 5° C./0% humidity
Experimental: In order to test for solid state stability and excipient compatibility, a sample of the xinafoate salt was micronised by jet milling (particle size: D10=0.24 μm, D50=1.15 μm, D90=4.29 μm) and the resulting powder was blended at a 1:100 weight ratio with lactose monohydrate (Respitose grade SV008). Samples were stored for 12 weeks at 25° C./60% relative humidity and 40° C./75% relative humidity and assayed for remaining drug content and impurities at 4, 8 and 12 weeks. A control sample was stored at 5° C./0% humidity.

[4] = Solvation/hydration by thermogravimetric analysis (TGA); conditions: for hydration or solvation: TGA, ambient to 300° C.
Experimental: Solvation/Hydration was assessed by thermogravimetric analysis (TGA) using a TA Instruments Hi-Res TGA 2950 instrument measuring the weight loss of a 8.8 mg sample in an open platinum pan. The sample was heated at 20° C./min from ambient to 300° C. utilizing a nitrogen furnace purge gas.

[5] = lactose blend, up to 12 weeks at 25° C./60% RH and 40° C./75% RH

Row | change in solid form [1] | hygroscopicity ([2]; 0 to 90% RH, 30° C.) | water sorption ([2]; 90% RH, 30° C., before micronisation) [%] | water sorption ([2]; 90% relative humidity, following micronisation using jet milling) [%] | % main band remaining versus control ([3]; 25° C./60% RH, 4 weeks) [%] | % main band remaining versus control ([3]; 25° C./60% RH, 8 weeks) [%] | % main band remaining versus control ([3]; 25° C./60% RH, 12 weeks) [%] | % main band remaining versus control ([3]; 40° C./75% RH, 4 weeks) [%] | % main band remaining versus control ([3]; 40° C./75% RH, 8 weeks) [%] | % main band remaining versus control ([3]; 40° C./75% RH, 12 weeks) [%] | change in physical form during storage [3, 5] | degradation during storage [3, 5] | hydration or solvation [4] | Compound | change in degree of crystallinity [1] | solvate formation ([4]; nine solvents tested)
1 | no change in solid form | essentially non-hygroscopic | 0.6 | 0.9 | 100.2 | 99.9 | 100.1 | 100.4 | 100.0 | 100.0 | no change in physical form was detected | no significant degradation was observed | does not show any hydration or salvation | CNC(=O)COc1cccc(Nc2ncc(F)c(Nc3ccc4c(c3)NC(=O)C(F)(F)O4)n2)c1 [xinafoate salt, xinafoate salt of N4-[(2,2-difluoro-4H-benzo[1,4]oxazin-3-one)-6-yl]-5-fluoro-N2-[3-(methylaminocarbonylmethyleneoxy)phenyl]-2,4-pyrimidinediamine] | negligible decrease in the degree of crystallinity | 
2 |  |  |  |  |  |  |  |  |  |  |  |  | hydrates to form a hemihydrate | CNC(=O)COc1cccc(Nc2ncc(F)c(Nc3ccc4c(c3)NC(=O)C(F)(F)O4)n2)c1 [free base, N4-[(2,2-difluoro-4H-benzo[1,4]oxazin-3-one)-6-yl]-5-fluoro-N2-[3-(methylaminocarbonylmethyleneoxy)phenyl]-2,4-pyrimidinediamine] |  | formed a different solvated form in each of nine solvents tested
